According to ChEMBL document CHEMBL3044604, “Synthesis of some substituted furan-2(5H)-ones and derived quinoxalinones as potential anti-microbial and anti-cancer agents” (Med Chem Res, 2011):
Values after ≈ are worked out from the molar mass of the structure shown.

Columns and labels:
[1] = molecular target: Cyclin-dependent kinase 5/CDK5 activator 1 (Homo sapiens, UniProt Q00535); test: Inhibition of CDK5/p25 (unknown origin); type: protein-complex assay
[2] = Inhibition of Marthasterias glacialis CDK1/cyclin B using histone H1 as substrate and [gamma32P]ATP after 10 min by scintillation counting
Candida albicans [3] = test: Antifungal activity against Candida albicans ATCC 10231 at 1 mg/ml after 24 hr by agar cup diffusion method; type: functional; details: ATCC 10231, 24 h, read-out: DIZ
[4] = molecular target: Glycogen synthase kinase-3 (Homo sapiens, UniProt P49840+P49841); test: Inhibition of GSK3alpha/beta (unknown origin); type: protein assay
Staphylococcus aureus [5] = test: Antibacterial activity against Staphylococcus aureus ATCC 6538 incubated for 48 hr followed by subculturing measured after 18 hr; type: functional
Staphylococcus aureus [6] = test: Antibacterial activity against Staphylococcus aureus ATCC 6538 after 48 hr by two fold serial dilution method; type: functional; details: ATCC 6538, 48 h
Escherichia coli [7] = test: Antibacterial activity against Escherichia coli NCTC 10418 at 1 mg/ml after 24 hr by agar cup diffusion method; type: functional; details: NCTC 10418, 24 h, read-out: DIZ
Staphylococcus aureus [8] = test: Antibacterial activity against Staphylococcus aureus ATCC 6538 at 1 mg/ml after 24 hr by agar cup diffusion method; type: functional; details: ATCC 6538, 24 h, read-out: DIZ
Candida albicans [9] = test: Antifungal activity against Candida albicans ATCC 10231 after 48 hr by two-fold serial dilution method; type: functional; details: ATCC 10231, 48 h
Candida albicans [10] = test: Antifungal activity against Candida albicans ATCC 10231 incubated for 48 hr followed by subculturing measured after 18 hr; type: functional
Escherichia coli [11] = test: Antibacterial activity against Escherichia coli NCTC 10418 incubated for 48 hr followed by subculturing measured after 18 hr; type: functional
Escherichia coli [12] = test: Antibacterial activity against Escherichia coli NCTC 10418 after 48 hr by two-fold serial dilution method; type: functional; details: NCTC 10418, 48 h
Pseudomonas aeruginosa [13] = test: Antibacterial activity against Pseudomonas aeruginosa ATCC 9027 after 48 hr by two-fold serial dilution method; type: functional; details: ATCC 9027, 48 h
Pseudomonas aeruginosa [14] = test: Antibacterial activity against Pseudomonas aeruginosa ATCC 9027 at 1 mg/ml after 24 hr by agar cup diffusion method; type: functional; details: ATCC 9027, 24 h, read-out: DIZ
Pseudomonas aeruginosa [15] = test: Antibacterial activity against Pseudomonas aeruginosa ATCC 9027 incubated for 48 hr followed by subculturing measured after 18 hr; type: functional

Cyclin-dependent kinase 5/CDK5 activator 1, sequence (Q00535 whole entry): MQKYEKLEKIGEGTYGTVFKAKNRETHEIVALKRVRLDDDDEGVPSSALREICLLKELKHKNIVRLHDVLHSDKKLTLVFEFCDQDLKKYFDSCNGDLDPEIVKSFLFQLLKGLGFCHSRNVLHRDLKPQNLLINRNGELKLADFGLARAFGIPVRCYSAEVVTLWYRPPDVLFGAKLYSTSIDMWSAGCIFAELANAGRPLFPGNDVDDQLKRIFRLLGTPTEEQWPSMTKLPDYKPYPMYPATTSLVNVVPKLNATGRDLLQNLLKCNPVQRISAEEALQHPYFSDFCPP
Cyclin-dependent kinase 5/CDK5 activator 1, sequence (Q15078 whole entry, further chain): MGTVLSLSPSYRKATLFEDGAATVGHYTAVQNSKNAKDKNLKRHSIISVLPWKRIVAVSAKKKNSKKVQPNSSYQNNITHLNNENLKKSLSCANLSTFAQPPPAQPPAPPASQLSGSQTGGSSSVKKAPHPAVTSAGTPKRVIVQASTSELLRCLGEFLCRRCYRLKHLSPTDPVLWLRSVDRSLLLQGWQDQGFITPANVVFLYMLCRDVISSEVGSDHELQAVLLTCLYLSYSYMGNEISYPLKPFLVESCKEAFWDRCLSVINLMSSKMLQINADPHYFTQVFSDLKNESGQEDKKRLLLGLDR

SMILES | IC50 [1] [µM] | IC50 [2] [µM] | zone of inhibition at 1000 µg/mL (Candida albicans [3]) [mm] | IC50 [4] [µM] | MBC (Staphylococcus aureus [5]) [µg/mL] | MIC (Staphylococcus aureus [6]) [µg/mL] | zone of inhibition at 1000 µg/mL (Escherichia coli [7]) [mm] | zone of inhibition at 1000 µg/mL (Staphylococcus aureus [8]) [mm] | MIC (Candida albicans [9]) [µg/mL] | MFC (Candida albicans [10]) [µg/mL] | MBC (Escherichia coli [11]) [µg/mL] | MIC (Escherichia coli [12]) [µg/mL] | MIC (Pseudomonas aeruginosa [13]) [µg/mL] | zone of inhibition at 1000 µg/mL (Pseudomonas aeruginosa [14]) [mm] | MBC (Pseudomonas aeruginosa [15]) [µg/mL]
COc1ccc(-c2nn(-c3ccccc3)cc2C2OC(=O)C(O)=C2Br)cc1 (configuration not stated) | > 10 | > 10 | 15 | > 10 | – | – | – | – | – | – | – | – | – | – | –
O=C1OC(c2cn(-c3ccccc3)nc2-c2ccc(Br)cc2)C(Br)=C1O (configuration not stated) | > 10 | > 10 | 16 | > 10 | 250 (≈ 525 µM) | 125 (≈ 263 µM) | 17 | 18 | – | – | – | – | – | – | –
Cc1nn(-c2ccccc2)c(C)c1C1OC(=O)C(O)=C1Cl (configuration not stated) | > 10 | > 10 | 16.5 | > 10 | – | – | – | – | – | – | – | – | – | – | –
O=C1OC(c2ccccc2)C(I)=C1O (configuration not stated) | > 10 | > 10 | 20.5 | > 10 | – | – | – | – | 62.5 (≈ 207 µM) | 125 (≈ 414 µM) | – | – | – | – | –
O=C1OC(c2ccc(Cl)cc2)C(I)=C1O (configuration not stated) | > 10 | > 10 | 17 | > 10 | – | – | – | – | – | – | – | – | – | – | –
COc1ccc(C2OC(=O)C(O)=C2I)cc1OC (configuration not stated) | > 10 | > 10 | 17.5 | > 10 | – | – | – | – | – | – | – | – | – | – | –
Cc1nn(-c2ccccc2)c(C)c1C1OC(=O)C(O)=C1I (configuration not stated) | > 10 | > 10 | 17.5 | > 10 | 62.5 (≈ 158 µM) | 31.2 (≈ 78.9 µM) | – | 19 | – | – | – | – | – | – | –
O=C(COC1=C(Br)C(c2ccccc2)OC1=O)NCc1ccccc1 (configuration not stated) | > 10 | > 10 | 17 | > 10 | 15.6 (≈ 38.8 µM) | 7.81 (≈ 19.4 µM) | 24 | 23 | – | – | 15.6 (≈ 38.8 µM) | 7.81 (≈ 19.4 µM) | 7.81 (≈ 19.4 µM) | 25 | 31.2 (≈ 77.7 µM)
O=c1[nH]c2ccccc2nc1/C(Cl)=C/c1ccc(Cl)cc1 | > 10 | > 10 | 17 | > 10 | 125 (≈ 394 µM) | 15.6 (≈ 49.2 µM) | – | 25 | – | – | – | – | – | 15 | –
O=c1[nH]c2ccccc2nc1/C(I)=C/c1ccccc1 | > 10 | > 10 | 16 | > 10 | – | – | – | – | – | – | – | – | – | – | –
O=c1[nH]c2ccccc2nc1/C(I)=C/c1ccc(Cl)cc1 | > 10 | > 10 | – | > 10 | – | – | 15 | – | – | – | – | – | – | 16.5 | –
Cc1nn(-c2ccccc2)c(C)c1/C=C(\I)c1nc2ccccc2[nH]c1=O | > 10 | > 10 | – | > 10 | – | – | 20 | – | – | – | 250 (≈ 534 µM) | 62.5 (≈ 133 µM) | – | 17.5 | –
O=C(O)/C(Br)=C/c1ccc(Cl)cc1 | > 10 | > 10 | 15 | > 10 | 500 (≈ 1910 µM) | 125 (≈ 478 µM) | 18 | 30 | – | – | 500 (≈ 1910 µM) | 125 (≈ 478 µM) | 31.2 (≈ 120 µM) | 18 | 62.5 (≈ 239 µM)
Cc1nn(-c2ccccc2)c(C)c1/C=C(\Br)C(=O)O | > 10 | > 10 | – | > 10 | – | – | 19 | – | – | – | 125 (≈ 389 µM) | 31.2 (≈ 97.3 µM) | 31.2 (≈ 97.3 µM) | 20 | 62.5 (≈ 195 µM)
O=C(O)/C(Br)=C/c1cn(-c2ccccc2)nc1-c1ccc(Br)cc1 | > 10 | > 10 | 15 | > 10 | 62.5 (≈ 139 µM) | 31.2 (≈ 69.7 µM) | 17 | 33 | – | – | – | – | 250 (≈ 558 µM) | 18 | 500 (≈ 1120 µM)
O=C(O)C(=O)/C=C/c1cn(-c2ccccc2)nc1-c1ccccc1 | > 10 | > 10 | 21 | > 10 | – | – | 19 | – | 31.2 (≈ 98.2 µM) | 125 (≈ 393 µM) | 125 (≈ 393 µM) | 31.2 (≈ 98.2 µM) | – | 12 | –
COc1ccc(-c2nn(-c3ccccc3)cc2/C=C/C(=O)C(=O)O)cc1 | > 10 | > 10 | 20 | > 10 | > 500 | 125 (≈ 359 µM) | 17 | 19 | 31.2 (≈ 89.7 µM) | 125 (≈ 359 µM) | – | – | – | 13 | –
O=C(O)C(=O)/C=C/c1cn(-c2ccccc2)nc1-c1ccc(Br)cc1 | > 10 | > 10 | 21 | > 10 | – | – | 19 | – | 7.81 (≈ 19.7 µM) | 31.2 (≈ 78.7 µM) | > 500 | 62.5 (≈ 157 µM) | – | 13 | –
O=C1OC(c2ccccc2)C(Br)=C1O (configuration not stated) | > 10 | > 10 | 20.5 | > 10 | > 500 | 62.5 (≈ 245 µM) | 21 | 23 | 31.2 (≈ 123 µM) | 62.5 (≈ 245 µM) | 250 (≈ 980 µM) | 62.5 (≈ 245 µM) | – | 13.5 | –
O=C1OC(c2ccc(Cl)cc2)C(Br)=C1O (configuration not stated) | > 10 | > 10 | 21 | > 10 | 150 (≈ 518 µM) | 62.5 (≈ 216 µM) | 20 | 20 | 31.2 (≈ 108 µM) | 62.5 (≈ 216 µM) | 125 (≈ 432 µM) | 31.2 (≈ 108 µM) | – | – | –
Cc1nn(-c2ccccc2)c(C)c1C1OC(=O)C(O)=C1Br (configuration not stated) | > 10 | > 10 | 17 | > 10 | 125 (≈ 358 µM) | 62.5 (≈ 179 µM) | 17 | 19 | – | – | – | – | – | – | –
O=C1OC(c2cn(-c3ccccc3)nc2-c2ccccc2)C(Br)=C1O (configuration not stated) | > 10 | > 10 | 16.5 | > 10 | – | – | 19 | – | – | – | 250 (≈ 629 µM) | 62.5 (≈ 157 µM) | 62.5 (≈ 157 µM) | 19 | 125 (≈ 315 µM)
CC1(C)S[C@@H]2[C@H](NC(=O)[C@H](N)c3ccccc3)C(=O)N2[C@H]1C(=O)O [AMPICILLIN] | – | – | – | – | 15.6 (≈ 44.7 µM) | 3.9 (≈ 11.2 µM) | 26 | 40 | – | – | 31.2 (≈ 89.4 µM) | 7.81 (≈ 22.4 µM) | 125 (≈ 358 µM) | – | 250 (≈ 715 µM)
Clc1ccccc1C(c1ccccc1)(c1ccccc1)n1ccnc1 [CLOTRIMAZOLE] | – | – | 28 | – | – | – | – | – | 7.81 (≈ 22.6 µM) | 15.6 (≈ 45.3 µM) | – | – | – | – | –
